# Laboratory results as given in patent US12678440B2, “Compositions and methods for treating misfolded protein ocular disorders” (CASE WESTERN RESERVE UNIVERSITY, priority 2020, dated 2026).
# How the values were obtained:
# RHO transcripts = test: qPCR of RHO transcripts in NIH3T3 (RHO^P23H/GFP) and NIH3T3 (RHO^WT/GFP) cells; assay type: cell-based; conditions: 10 μM, 24 h; for WT and P23H rhodopsin transcripts in comparison to DMSO control: both cell lines; for Rho mRNA level (qPCR): vs DMSO
# Experimental: NIH3T3 (RHO^WT/GFP) and NIH3T3 (RHO^P23H/GFP) cells were seeded in the 24-well plates at a density of 2.5×10^5 cells/well and cultured at 37° C. with 5% CO2 for overnight. Cells were then incubated with the culture medium containing compounds for 24 h. After aspirating the medium, cells were collected and lysed in 300 μL/well of TRIzol (ThermoFisher, 15596026, Waltham, MA USA) for 5 min. Samples were vigorously mixed with 60 μL chloroform for 30 s, then centrifuged at 12,000×g for 15 min at 4° C. The upper aqueous phase containing RNA was taken out and mixed with 150 μL isopropanol by vigorous shaking. After sedation for 10 min, samples were centrifuged at 12,000×g for 10 min at 4° C. The pellets were washed with 300 μL 75% ethanol and centrifuged at 7,500×g at 4° C. for 5 min. The RNA pellets were air-dried for 15 min and dissolved in 30 μL nuclease-free water (FisherScientific, BP2484-100, Houston, TX USA). The yield and purity of RNA were assessed by a NanoDrop spectrometer. The cDNAs was generated from 1 μg RNA using a High-Capacity RNA-to-cDNA Kit (ThermoFisher, 4387406, Waltham, MA USA). qPCR amplifications were performed using the PowerUp SYBR Green Master Mix (ThermoFisher, A25741, Waltham, MA USA) with the cDNA templates and primers, and the reaction was controlled by a QuantStudio 3 thermocycler (ThermoFisher, Waltham, MA USA). Primer sequences are as follows: RHO, forward 5′-CCCTTCTCCAACGTCACAGG-3′ (SEQ ID NO: 1), reverse 5′-TGAGGAAGTTGATGGGGAAGC-3′ (SEQ ID NO: 2); β-actin, forward 5′-ACCTTCTACAATGAGCTGCG-3′ (SEQ ID NO: 3), reverse 5′-CTGGATGGCTACGTACATGG-3′ (SEQ ID NO: 4).
# [1] = tested on: P23H mutant mouse rhodopsin fused with Renilla luciferase (Rluc); test: Rluc (luciferase) reporter assay in Hek293 (RHO^P23H-Rluc) cells; assay type: cell-based; conditions: for Efficacy, Rluc assay Hek293 (RHO^P23H − Rluc): 24 h, DMSO 0%, Evans Blue −100% controls; for EC50: 24 h compound treatment, dose-response, triplicate
# From the text: Two Hek293 stable cell lines, Hek293 (RHO^WT-Rluc) and Hek293 (RHO^P23H-Rluc) cells were generated which stably express the WT and P23H mutant mouse rhodopsin each fused with a Renilla luciferase (Rluc) for the luciferase reporter assay as previously described. Briefly, the Hek 293 cells (ATCC, Manassas, VA, USA) were transfected with the pcDNA3.1 Zeo containing the cDNA of mouse WT or P23H rhodopsin fused with a Rluc 8 (a gift from Dr. Navine Lambert at Augusta University, Augusta, GA USA) and transfected cells were incubated in Dulbecco's modified Eagle's medium (DMEM, Genesee Scientific, E1 Cajon, CA USA) with 10% fetal bovine serum (FBS, Gibco Laboratories, Gaithersburg, MD USA) for 48 h before addition of 400 μg/mL of Zeocin (InvivoGen, San Diego, CA USA) for positive clone selection. Colonies of cells survived from 1 week of Zeocin selection were collected, and expression of WT and P23H rhodopsin were confirmed by a luciferase assay and immunoblotting of rhodopsin with positive bands of monomers at about 70 kD (FIG. 8). The difference of molecular masses between WT and P23H rhodopsin proteins was due to differences in glycosylation, which was also seen in the NIH3T3 cells expressing the WT and P23H rhodopsin proteins.
# The HTS was performed at three facilities, including University of Cincinnati (UC), Case Western Reserve University, and National Center for Advancing Translational Sciences (NCATS), testing a total of six compound collections. These compound collections include: 1) the UC 10K Diversity Set (10,011 compounds), 2) the Life Chemicals 50K Collection (50,560), 3) the Spectrum Collection (2,400 compounds), 4) the LOPAC collection (1,280 compounds), 5) the FDA collection (2,816 compounds), and 6) the NCATS MIPE collection (1,912 compounds). […] For the compound collections 1), 2) and 3), we firstly tested each compound using the P23H rhodopsin luciferase reporter assay at a single dose for once (9.93 to 16.13 μM) in 384-well format, and we identified 2072 compounds with activity scores lower than the cutoff at mean-2SD. Activity scores were normalized using DMSO treated cells as 0% control and the 1 mM Evans Blue treated cells as −100% control. From these hit compounds, we excluded those reported with luciferase inhibitor activities and cherry-picked the rest for hit confirmation. Each hit was tested at 10 μM in the Hek293 (RHO^P23H-Rluc) cells again by the luciferase reporter assay in triplicates, and the confirmed hits with activity scores lower than-50% were then counter screened for their effects on Rluc activity by the recombinant Rluc activity assay, and on WT rhodopsin level by the luciferase reporter assay in the Hek293 (RHO^WT-Rluc) cells at 10 μM in triplicates, respectively. […] Next, we tested the dose responses of these confirmed hits in both the Hek293 (RHO^P23H-Rluc) and the Hek293 (RHO^WT-Rluc) cells and identified compounds that selectively favored the clearance of P23H than WT rhodopsin in a dose-dependent manner (Table 4). For the compound collections 4)-6), we tested each compound directly at 7 or 11 doses using the luciferase reporter assay in the Hek293 (RHO^P23H-Rluc) cells in 1536-well format, and identified 128 compounds with efficacy smaller than-50% and EC50<20 μM.
# The Rluc reporter assay has been described before. HTS was undertaken in 384-well format for the UC 10K Diversity Set, Spectrum Collection and the Life Chemicals 50K diversity set, and in 1536-well format for the FDA, LOPAC, and MIPE collections. Using the 384-well format as an example, Hek (RHO^P23H-Rluc) cells were seeded in 384-well white-wall clear-bottom plates (assay plates) at 3×10^5/mL for 40 μL/well by an 8-channel Multiflo liquid dispenser (Bioteck, Winooski, VT USA). The assay plates were centrifuged at 300×g for 30 s and cultured at 37° C. with 5% CO2 overnight. […]
SMILES,EC50 [1] [nM],WT and P23H rhodopsin transcripts in comparison to DMSO control (RHO transcripts),Rho mRNA level (qPCR) (RHO transcripts),"Efficacy, Rluc assay Hek293 (RHO^P23H − Rluc) [1] [%]",increase of rhodopsin transcripts compared to DMSO control (RHO transcripts; both NIH3T3 (RHO^P23H/GFP) and NIH3T3 (RHO^WT/GFP) cells)
CC(O)CN (stereo not drawn) [CL-004],1600,reduced non-selectively,Down,−68.6,
CCn1cnc2c(N)ncnc21 [CL-007],13000,reduced non-selectively,Down,−72.5,
CCC(C)(O)C(O)C(=O)O (stereo not drawn) [CL-008],930,reduced non-selectively,Down,−89.5,
"CN(Cc1cnc2nc(N)nc(N)c2n1)c1ccc(C(=O)N[C@@H](CCC(=O)O)C(=O)O)cc1 [CL-009, N-[4-[[(2,4-diamino-6-pteridinyl)methyl]methylamino]benzoyl]-L-glutamic acid]",430,did not affect the transcription,No Change,−53.0,

# Now from value to compound, other results behind:
EC50 [1] [nM],SMILES,WT and P23H rhodopsin transcripts in comparison to DMSO control (RHO transcripts),Rho mRNA level (qPCR) (RHO transcripts),"Efficacy, Rluc assay Hek293 (RHO^P23H − Rluc) [1] [%]",increase of rhodopsin transcripts compared to DMSO control (RHO transcripts; both NIH3T3 (RHO^P23H/GFP) and NIH3T3 (RHO^WT/GFP) cells)
1100,CC(=O)OC(CC(=O)[O-])C[N+](C)(C)C (stereo not drawn) [CL-001],reduced non-selectively,Down,−69.4,
2000,CC(=O)OC(CC(=O)O)C[N+](C)(C)C (stereo not drawn) [CL-002],reduced non-selectively,Down,−86.1,
890,O=C(O)C1=CC=CC(O)C1O (stereo not drawn) [CL-003],reduced non-selectively,Down,−65.3,
6600,NCC(=O)COP(=O)(O)O [CL-005],,Up,−78.2,up to 2 fold
1700,O=C(NC1CCNCC1)c1n[nH]cc1NC(=O)c1c(Cl)cccc1Cl [CL-006],reduced non-selectively,Down,−66.2,
